# Read-outs that look alike come from different tables or passages of the source.
# Tests used:
# [1] = system: Escherichia coli ATCC 25922; assay: Minimal inhibitory concentration (growth kinetics at 600 nm / broth microdilution); conditions: for MIC: Escherichia coli, ATCC25922, 18 h
# Procedure: (§1) Growth kinetics of Candida albicans ATCC 10231 (C. albicans, fungi), Staphylococcus aureus ATCC 6538 (S. aureus, gram-positive bacteria) and Escherichia coli ATCC 25922 (E. coli, gram-negative bacteria) (1×10^5 cells/ml) exposed to variable concentrations (from 62.5 to 500 μg/ml for fungi and from 15.6 to 500 μg/ml for S. aureus and E. coli) of the surfactants was evaluated by absorbance at 600 nm. Inoculum corresponds to prokaryotic cells incubated without surfactants. The samples were prepared in a 96-well plate and incubated for 18 h at 30° C. (fungi) or 37° C. (bacteria) with constant shaking in a Biotek Synergy Mx spectrophotometer.
# (§2) Minimum inhibitory concentrations (MICs) were determined by the broth microdilution method according to the National Committee for Clinical Laboratory Standard (for yeasts; NCCLS; M27A2E) and the Clinical and Laboratory Standards Institute (for bacteria; CLSI; M07-A8) guidelines.
# (§3) Inoculum corresponds to prokaryotic cells incubated without SNPs. The samples were prepared as described above.
# (§4) Typically, SWCNTs coated with DDAB or other surfactants were diluted taking in account the initial surfactant concentration being the SWCNT concentration estimated by the corresponding mass ratio used. The antimicrobial activity of the coated SWCNTs was tested in suspension against Candida albicans ATCC 10231 (C. albicans, fungi), Staphylococcus aureus ATCC 6538 (S. aureus, bacteria gram-positive) and Escherichia coli ATCC 25922 (E. coli, bacteria gram-negative). Yeast Peptone Dextrose (YPD) and Tryptone Soy Yeast (TSY) media were used to culture yeast and bacteria, respectively. […] Inoculum corresponds to cells incubated without CNTs. The samples were prepared in a 96-well plate and incubated for 18 h at 30° C. (fungi) or 37° C. (bacteria) with constant shaking in a Biotek Synergy Mx spectrophotometer.
# [2] = system: Candida albicans ATCC 10231; assay: as above; conditions: for MIC: Candida albicans, ATCC10231, 18 h
# Procedure: as §1, §2, §3, §4
# [3] = system: Staphylococcus aureus ATCC 6538; assay: as above; conditions: for MIC: Staphylococcus aureus, ATCC6538, 18 h
# Procedure: as §1, §2, §3, §4
# [4] = Critical micelle concentration (CMC) with fluorescent probe N-phenyl-1-naphthylamine; type: physicochemical; conditions: surfactant in PBS pH 7.4
# Procedure: Critical Micelle Concentration (CMC) was determined for a range of surfactants, following the method described by Brito et al. ‘Determination of the critical micelle concentration of surfactants using the fluorescent probe N-phenyl-1-naphthylamine.’ Anal. Biochem 1986 (152) 250-255.
# Briefly, the surfactants were dissolved in PBS (pH 7.4), serially diluted and mixed with N-phenyl-1-naphthylamine (NPN; TCI). The fluorescence of each sample was quantified (excitation at 350 nm; emission at 420 nm) and plotted against the concentration of each surfactant. The CMC was found at the intersection of two straight lines traced on the emission intensity plot, defining the aqueous and micellar environments.
# The evolution of SWCNTs resuspension was performed by optical density measurement (at 600 nm) on a microplate reader. N-phenyl-1-naphthylamine (NPN) (Sigma-Aldrich) was used to determine the DDAB critical micelle concentration (CMC) and the presence of micelles on the SWCNT suspension. A solution of NPN of 2×10^−1 M in ethanol was prepared and further diluted in PBS to the working concentration of 2×10^−4 M. DDAB or SWCNT-DDAB suspensions were mixed in equal volumes on a opaque 96-well plate and the fluorescence measured with the assistance of a SpectraMax Fluoremeter using an excitation and emission wavelength of 320 and 450 nm, respectively.
# [5] = read-out: MIC S. aureus, soluble surfactant, 15.6 to 500 μg/ml, 18 h at 37° C.
# [6] = soluble surfactant, 15.6 to 500 μg/ml, 18 h at 37° C.
smiles,measurement,setting,value
"CCCCCCCCCCCC[N+](C)(C)CCCCCCCCCCCC.[Br-] [DDAB, didodecyldimethylammonium bromide]",MIC,[1]; read-out: MIC E. coli,125 mg/L
same,MIC,"[2]; read-out: MIC C. albicans, soluble surfactant, 62.5 to 500 μg/ml, 18 h at 30° C.",125 mg/L
same,MIC C. albicans,"[2]; soluble surfactant, 62.5 to 500 μg/ml, 18 h at 30° C.",250 mg/L
same,MIC,[3]; [5],31.2 mg/L
same,MIC S. aureus,[3]; [6],31.3 mg/L
same,CMC,[4],32.4 µg/mL
"CCCCCCCCCCCCCCCC[N+](C)(C)CCCCCCCCCCCCCCCC.[Br-] [DHDAB, dihexadecyldimethylammonium bromide]",CMC,[4],5.2 µg/mL
"CCCCCCCCCCCC[N+](C)(C)C.[Br-] [DTAB, dodecyltrimethylammonium bromide]",MIC,"[1]; read-out: MIC E. coli, soluble surfactant, 15.6 to 500 μg/ml, 18 h at 37° C.",125 mg/L
same,MIC E. coli,[1]; [6],62.5 mg/L
same,MIC,[2]; read-out: MIC C. albicans,250 mg/L
same,MIC,[3]; read-out: MIC S. aureus,31.2 mg/L
same,CMC,[4],3515.1 µg/mL
"CCCCCCCCCCCCCC[N+](C)(C)CCCCCCCCCCCCCC.[Br-] [DTDAB, ditetradecyldimethylammonium bromide]",CMC,[4],7.8 µg/mL
"CCCCCCCCCCCC[N+](C)(CCCCCCCCCCCC)CCCCCCCCCCCC.[Cl-] [TMAC, tridodecylmethylammonium chloride]",MIC,[3]; [5],125 mg/L
same,CMC,[4],246.2 µg/mL

# From patent US20150079174A1, “ANTIMICROBIAL COMPLEXES” (Matera, LDA, priority 2012, published 2015)
